≈ marks a conversion by molar mass, not a printed value. Calls of active or inactive are those of the source. The rule behind the calls is not given here.

Results on eleven compounds are retold here after ChEMBL document CHEMBL5518206, “Hit-to-Lead Identification and Validation of a Triaromatic Pleuromutilin Antibiotic Candidate” (J Med Chem, 2024).

Data set [1] can be described thus: Solubility of the compound in Dulbecco's PBS at 20 degree C measured after 24 hrs.
Data set [2] in a line: Inhibition of P-gp efflux in MDCKII-MDR1 cells using calcein-AM as substrate assessed as intracellular calcein fluorescence preincubated for 15 mins followed by substrate addition and measured by fluorescence based assay. The data set is classed as cell-based. The following applies: Canis lupus familiaris.
The next data set concerns Staphylococcus aureus. Put plainly: Antibacterial activity against multi drug-resistant Staphylococcus aureus USA300 FPR3757 assessed as inhibition of visible growth incubated for 20 to 24 hrs by microbroth serial dilution assay. The data set is classed as functional. The following applies: time 20-24 hrs, read-out: MIC100.
In another data set the test system is Streptococcus pneumoniae. Briefly: Antibacterial activity against Streptococcus pneumoniae assessed as inhibition of visible growth incubated for 20 to 24 hrs by microbroth serial dilution assay. The following applies: time 20-24 hrs, read-out: MIC100. The data set is classed as functional.
In a further data set the test system is Enterococcus faecalis. Briefly: Antibacterial activity against Enterococcus faecalis assessed as inhibition of visible growth incubated for 20 to 24 hrs by microbroth serial dilution assay. The following applies: time 20-24 hrs, read-out: MIC100. The data set is classed as functional.
In data set [3] the test system is Enterococcus faecium. Briefly: Antibacterial activity against Vancomycin-resistant Enterococcus faecium assessed as inhibition of visible growth incubated for 20 to 24 hrs by microbroth serial dilution assay. The data set is classed as functional. The following applies: time 20-24 hrs, read-out: MIC100.
Data set [4] has as its system Enterococcus faecium. Put plainly: Antibacterial activity against Linezolid/Ampicillin/ciprofloxacin/Vancomycin-resistant Enterococcus faecium assessed as inhibition of visible growth incubated for 20 to 24 hrs by microbroth serial dilution assay. The data set is classed as functional. The following applies: time 20-24 hrs, read-out: MIC100.
Data set [5] in a line: in vitro. The following applies: mouse.
Data set [6] is described as follows: in vitro. The following applies: mouse. This is another data set of the same source.
Data set [7] is described as follows: in vitro. The following applies: human.
A short description of data set [8]: in vitro. The following applies: human. The source holds these as a separate data set.
Data set [9] can be described thus: in vitro. The following applies: pig.
The nature of data set [10]: in vitro. The following applies: pig. The source holds these as a separate data set.
The subject of a further data set is MDCK-MDR1. Briefly: Cytotoxicity against MDCKII-MDR1 cells assessed as cell viability at 100 uM measured by MTT assay. The data set is classed as toxicity, cell-based, Canis lupus familiaris. The following applies: dog, mdck-mdr1, 100 µM.
A further data set concerns Escherichia coli. Put plainly: Antibacterial activity against Escherichia coli assessed as inhibition of visible growth incubated for 20 to 24 hrs by microbroth serial dilution assay. The data set is classed as functional, organism-based. The following applies: time 20-24 hrs.
The test system of the next data set is Listeria. Put plainly: Antibacterial activity against Listeria assessed as inhibition of visible growth incubated for 20 to 24 hrs by microbroth serial dilution assay. The data set is classed as functional, organism-based. The following applies: time 20-24 hrs.
Data set [11] has as its system Staphylococcus epidermidis. Put plainly: Antibacterial activity against Staphylococcus epidermidis assessed as inhibition of visible growth incubated for 20 to 24 hrs by microbroth serial dilution assay. The following applies: time 20-24 hrs. The data set is classed as functional, organism-based.

Regarding `C=C[C@]1(C)C[C@@H](OC(=O)Cn2cc(-c3ccc([C@@H](C)n4cnc5c(N)ncnc54)cc3)nn2)[C@]2(C)[C@H](C)CC[C@]3(CCC(=O)[C@H]32)[C@@H](C)[C@@H]1O`, in [1], the concentration in solution (solubility at 24 h) came to 2.6 µM (≈ 1.73 µg/mL). Besides, in data set [2], the IC50 was 50 µM. The MIC in the data set with Staphylococcus aureus came to 0.12 µg/mL (≈ 0.18 µM); with Streptococcus pneumoniae, 0.25 µg/mL (≈ 0.375 µM); in the data set with Enterococcus faecalis, 0.5 µg/mL (≈ 0.75 µM); in the data set on Enterococcus faecium [3], 0.25 µg/mL (≈ 0.375 µM); with Enterococcus faecium [4], 0.25 µg/mL (≈ 0.375 µM).
In turn, `C=C[C@]1(C)C[C@@H](OC(=O)Cn2cc(-c3ccc(Cn4cnc5c(N)ncnc54)c(OC)c3)nn2)[C@]2(C)[C@H](C)CC[C@]3(CCC(=O)[C@H]32)[C@@H](C)[C@@H]1O` gave a solubility at 24 h in [1] of 2.2 µM (≈ 1.5 µg/mL). Moreover, the half-inhibitory concentration (IC50) in [2] is 46 µM. Besides, the MIC was found to be 0.06 µg/mL (≈ 0.0879 µM) in the data set with Staphylococcus aureus; 0.25 µg/mL (≈ 0.366 µM) in the data set on Streptococcus pneumoniae; 0.25 µg/mL (≈ 0.366 µM) with Enterococcus faecalis; 0.12 µg/mL (≈ 0.176 µM) in the data set on Enterococcus faecium [3]; 0.12 µg/mL (≈ 0.176 µM) in the data set on Enterococcus faecium [4].
For the compound `O=C(O)Cc1ccccc1Nc1c(Cl)cccc1Cl` [DICLOFENAC], the half-life at 0.5 h, 1 µM is 51.7 min in the data set “in vitro [5]” (microsomes), 18.8 min in the data set “in vitro [7]” (microsomes) and 37.9 min in “in vitro [9]” (microsomes). The values for the CLint scaled at 0.5 h, 1 µM in the data set “in vitro [6]” (microsomes), in “in vitro [8]” (microsomes) and in the data set “in vitro [10]” (microsomes) were 6.36 L/h/kg, 19.9 L/h/kg and 8.7 L/h/kg, respectively.
On to `C=C[C@]1(C)C[C@@H](OC(=O)Cn2cc(-c3ccc(Cn4cnc5c(N)nc(N)nc54)cc3)nn2)[C@]2(C)[C@H](C)CC[C@]3(CCC(=O)[C@H]32)[C@@H](C)[C@@H]1O`, for which the concentration in solution in [1] (solubility at 24 h) was 1.9 µM (≈ 1.27 µg/mL). In [2], the IC50 is over 100 µM. Also, the MIC came out at 0.06 µg/mL (≈ 0.0898 µM) with Staphylococcus aureus; 0.5 µg/mL (≈ 0.749 µM) in the data set with Streptococcus pneumoniae; 0.25 µg/mL (≈ 0.374 µM) in the data set with Enterococcus faecalis; 0.12 µg/mL (≈ 0.18 µM) in the data set on Enterococcus faecium [3]; 0.12 µg/mL (≈ 0.18 µM) in the data set with Enterococcus faecium [4]. The Activity entry in the data set on MDCK-MDR1 was “Non-Toxic”.
With `C=C[C@]1(C)C[C@@H](OC(=O)Cn2cc(-c3ccc(Cn4cnc5c(N)ncnc54)c(O)c3)nn2)[C@]2(C)[C@H](C)CC[C@]3(CCC(=O)[C@H]32)[C@@H](C)[C@@H]1O`, in [1], the solubility at 24 h was found to be 2.5 µM (≈ 1.67 µg/mL). Moreover, the IC50 in [2] was over 100 µM. Besides, the MIC in the data set with Staphylococcus aureus stood at 0.03 µg/mL (≈ 0.0449 µM); in the data set with Streptococcus pneumoniae, 0.25 µg/mL (≈ 0.374 µM); with Enterococcus faecalis, 0.25 µg/mL (≈ 0.374 µM); in the data set on Enterococcus faecium [3] it was 0.25 µg/mL (≈ 0.374 µM); in the data set on Enterococcus faecium [4] it was 0.25 µg/mL (≈ 0.374 µM). Also, the Activity result in the data set on MDCK-MDR1 is “Non-Toxic”. Moreover, the figures for the half-life at 0.5 h, 1 µM in “in vitro [5]” (liver microsomes) and in “in vitro [7]” (liver microsomes) were 0.56 min and 1.2 min, respectively. Also, the figures for the intrinsic metabolic clearance (CLint scaled) at 0.5 h, 1 µM in the data set “in vitro [6]” (liver microsomes) and in the data set “in vitro [8]” (liver microsomes) were 586 L/h/kg and 317 L/h/kg, respectively.
Take `C=C[C@]1(C)C[C@@H](OC(=O)Cn2cc(-c3ccc(Cn4cnc5c(N6CCN(C)CC6)ncnc54)cc3)nn2)[C@]2(C)[C@H](C)CC[C@]3(CCC(=O)[C@H]32)[C@@H](C)[C@@H]1O`: the 50% inhibitory concentration (IC50) in data set [2] was 2 µM. The MIC in the data set with Streptococcus pneumoniae and with Enterococcus faecium [4] was 0.12 µg/mL (≈ 0.163 µM) in each case. Further, the result (in the data set with Escherichia coli; in the data set with Listeria; in data set [11]) was inactive. In addition, the Activity entry in the data set on MDCK-MDR1 is recorded as “Non-Toxic”. The half-life at 0.5 h, 1 µM was 1.1 min in “in vitro [5]” (liver microsomes), 1.4 min in “in vitro [7]” (liver microsomes) and 0.5 min in the data set “in vitro [9]” (liver microsomes). Besides, the values for the CLint scaled at 0.5 h, 1 µM in “in vitro [6]” (liver microsomes), in “in vitro [8]” (liver microsomes) and in “in vitro [10]” (liver microsomes) were 293 L/h/kg, 266 L/h/kg and 630 L/h/kg, respectively.
On to `C=C[C@]1(C)C[C@@H](OC(=O)Cn2cc(-c3ccc(Cn4cnc5c(N6CCNCC6)ncnc54)cc3)nn2)[C@]2(C)[C@H](C)CC[C@]3(CCC(=O)[C@H]32)[C@@H](C)[C@@H]1O`, for which the concentration in solution in data set [1] (solubility at 24 h) came to 31 µM (≈ 22.4 µg/mL). The IC50 in data set [2] is 10 µM. Also, the MIC in the data set on Staphylococcus aureus was determined as 0.25 µg/mL (≈ 0.346 µM); in the data set on Streptococcus pneumoniae it was 0.25 µg/mL (≈ 0.346 µM); in the data set on Enterococcus faecalis it was 0.25 µg/mL (≈ 0.346 µM); with Enterococcus faecium [3] it was 0.06 µg/mL (≈ 0.0831 µM); in the data set with Enterococcus faecium [4] it was 0.12 µg/mL (≈ 0.166 µM).
Consider `C=C[C@]1(C)C[C@@H](OC(=O)Cn2cc(-c3ccc([C@H](C)n4cnc5c(N6CCNCC6)ncnc54)cc3)nn2)[C@]2(C)[C@H](C)CC[C@]3(CCC(=O)[C@H]32)[C@@H](C)[C@@H]1O`, for which the MIC with Staphylococcus aureus, in the data set on Streptococcus pneumoniae, in the data set with Enterococcus faecalis, in the data set with Enterococcus faecium [3] and with Enterococcus faecium [4] was 0.5 µg/mL (≈ 0.679 µM) throughout.
In data set [1], `C=C[C@]1(C)C[C@@H](OC(=O)Cn2cc(-c3ccc([C@@H](C)n4cnc5c(N6CCNCC6)ncnc54)cc3)nn2)[C@]2(C)[C@H](C)CC[C@]3(CCC(=O)[C@H]32)[C@@H](C)[C@@H]1O` returned a solubility at 24 h of 10 µM (≈ 7.36 µg/mL). The IC50 in [2] was 7 µM. Besides, the MIC came to 0.25 µg/mL (≈ 0.34 µM) with Staphylococcus aureus; 0.25 µg/mL (≈ 0.34 µM) in the data set on Streptococcus pneumoniae; 0.5 µg/mL (≈ 0.679 µM) in the data set on Enterococcus faecalis; 0.25 µg/mL (≈ 0.34 µM) with Enterococcus faecium [3]; 0.25 µg/mL (≈ 0.34 µM) in the data set on Enterococcus faecium [4].
In data set [1], `C=C[C@]1(C)C[C@@H](OC(=O)Cn2cc(-c3ccc(Cn4cnc5c(N)ncnc54)nc3)nn2)[C@]2(C)[C@H](C)CC[C@]3(CCC(=O)[C@H]32)[C@@H](C)[C@@H]1O` showed a solubility at 24 h of 6.7 µM (≈ 4.38 µg/mL). Also, in [2], the IC50 is 98 µM. Besides, the MIC in the data set with Staphylococcus aureus amounted to 0.03 µg/mL (≈ 0.0459 µM); in the data set with Streptococcus pneumoniae it was 0.25 µg/mL (≈ 0.382 µM); in the data set with Enterococcus faecalis, 0.25 µg/mL (≈ 0.382 µM); with Enterococcus faecium [3] it was 0.12 µg/mL (≈ 0.184 µM); in the data set on Enterococcus faecium [4], 0.12 µg/mL (≈ 0.184 µM). Moreover, the Activity result in the data set on MDCK-MDR1 is on record as “Non-Toxic”. In addition, the figures for the half-life at 0.5 h, 1 µM in “in vitro [5]” (liver microsomes) and in “in vitro [7]” (liver microsomes) were 0.58 min and 1.9 min, respectively. For the same compound, the CLint scaled at 0.5 h, 1 µM in “in vitro [6]” (liver microsomes) was 571 L/h/kg; in the data set “in vitro [8]” (liver microsomes), 194 L/h/kg.
In the case of `C=C[C@]1(C)C[C@@H](OC(=O)Cn2cc(-c3ccc([C@H](C)n4cnc5c(N)ncnc54)cc3)nn2)[C@]2(C)[C@H](C)CC[C@]3(CCC(=O)[C@H]32)[C@@H](C)[C@@H]1O`, in data set [2], the IC50 is 81 µM. Moreover, the MIC was found to be 0.12 µg/mL (≈ 0.18 µM) with Staphylococcus aureus; 1 µg/mL (≈ 1.5 µM) with Streptococcus pneumoniae; 1 µg/mL (≈ 1.5 µM) in the data set on Enterococcus faecalis; 0.5 µg/mL (≈ 0.75 µM) in the data set with Enterococcus faecium [3]; 0.5 µg/mL (≈ 0.75 µM) in the data set on Enterococcus faecium [4].
